Laboratory results: patent publication EP0362382A1, “METHOD OF STERILIZING PLANT POLLEN” (VSESOJUZNY NAUCHNO-ISSLEDOVATELSKY INST. SELSKOKHOZYAISTV. …, priority 1988, dated 1989)

Each molecule was assayed on diploidem Roggen (assay: Field test of gametocidal activity (sterilisation of anthers), diploid rye). Conditions: Sorte Wosohod 2; V. Periode der Organogenese; 1%ige wäßrige Emulsion; 6 kg/ha.
Type: in vivo
Source text: (§1) Die gametozide Aktivitat der erfindungsgemäßen Sterilisationsmittel war im Feldversuch in verschiedenen bodenklimatischen Zonen mit Teilstücken von 10 m^2 Größe in drei- bis viermaliger Wiederholung festgestellt. Jedes Sterilisationsmittel wurde mindenstens 5 Jahre lang geprüft.
(§2) Die Entwicklung der Perioden der Organogenese wird zytologisch überwacht. Die Behandlung von Pflanzen mit dem Sterilisationsmittel erfolgt am Anfang der fünften Periode der Organogenese nach Kupermann.
(§3) Mit dem Ährenschieben verwirklicht man die Isolierung von Hauptähren und anderen Stockwerken in Pergamentbeuteln. Bei Weizen und Tritikale werden Einzelisolatoren benutzt. Bei Roggen schließt man je Ähre 5 bis 7 verschiedene nebeneinander befindliche Pflanzen unter einen gemeinsamen Isolator ein. Bei Hierse wird jede Rispe getrennt isoliert. Der Sterilitätsprozentsatz (X) für Weizen, Roggen, Tritikale und Hirse wird nach der Formel [formula] ermittelt.
(§4) Die Kornzahl in nicht isolierten Ähren von Kontrollpflanzen wird bedingt für 100 % Ansetzen bei freier Bestäubung angenommen.
(§5) Um zuverlässige Angaben zu erhalten, verwendet man 20 bis 25 Isolatoren jeder Wiederholung für Weizen und Tritikale, 10 .bis 15 Isolatoren jeder Wiederholung für Roggen und Hirse.
Pflanzen von diploidem Roggen Sorte Wosohod 2 werden in der V. Periode der Organogenese (nach Kupermann) mit 1%iger wäßriger Emulsion von Bis(di-n-butyläther) der δ, δ' -Thiodivaleriansäure, 4-Krboxybutyldezylsulfid, Natriumsalz der δ, δ' -Thiodivaleriansäure, Bis(2-äthylhexyläther) der δ, δ' -Thiodivaleriansäure, δ, δ' -Sulfonyldivaleriansäure, Natriumsalz der δ, δ'-Sulfonyldivaleriansäure, Kaliumsalz der δ, δ' -Sulfonyldivaleriansäure behandelt. Die Emulsion enthält 0,1 Masse% […] mit 12 bis 14 Kohlenstoffatomen und 0,01 Masse% Tetrahydrofuran. Der Verbrauch an Präparat beträgt 6 kg/ha. Als Kontrolle dienen Pflanzen, behandelt mit einem Verdünner ohne Sterilisationsmittel.
Pflanzen von diploidem Roggen Sorte Gibrid 1861/79 werden in der V. und VI. Periode der Organogenese (nach Kupermann) mit 1%iger wäßriger Emulsion von Bis(di-n-butyläther) der δ, δ' -Thiodivaleriansäure, δ, δ' -Thiodivaleriansäure, Natriumsalz der δ δ' -Thiodivaleriansäure, 4-Karboxybutyldezylsulfid, δ , δ' -Sulfonyldivaleriansäure, Kaliumsalz der δ, δ' -Sulfonyldivaleriansäuleriansäure, Kaliumalz der δ' -Sulfonyldivaleriansäure, Bis(2-äthylhexyläther) der δ, δ' -Thiodivaleriansäure behandelt. Die Emulsion enthält 0,1 Masse% Kalziumalkylbenzolsulfonat mit 12 bis 14 Kohlenstoffatomen und 0,01 Masse% Dimethylformamid. Der Verbrauch an Präparat beträgt 8 kg/ha. Als Kontrolle dienen Pflanzen, behandelt mit einem Verdünner ohne Sterilisationsmittel. Die Prüfergebnisse sind in der Tabelle 10 angegeben.

Row | Molecule | Anzahl von Körnern der Ähre bei freier Bestäubung | Anzahl von Körnern der Ähre im Isolator | Prozentsatz der Sterilität | Prozentsatz des Ansetzens von Körnern bei freier Bestäubung
1 | CCCCOC(=O)CCCCSCCCCC(=O)OCCCC [Beispiel 37, Bis(di-n-butyläther) der δ, δ' -Thiodivaleriansäure] | 50,9 | 0,0 | 100,0% | 93,2%
2 | CCCCCCCCCCSCCCCC(=O)O [Beispiel 38, 4-Krboxybutyldezylsulfid] | 50,5 | 0,0 | 100,0% | 92,5%
3 | O=C(O)CCCCSCCCCC(=O)O [Beispiel 39, Natriumsalz der δ, δ' -Thiodivaleriansäure] | 50,5 | 0,1 | 99,8% | 92,5%
4 | CCCCC(CC)COC(=O)CCCCSCCCCC(=O)OCC(CC)CCCC (stereo not shown) [Beispiel 40, Bis(2-äthylhexyläther) der δ, δ' -Thiodivaleriansäure] | 52,9 | 0,0 | 100,0% | 96,9%
5 | O=C(O)CCCCS(=O)(=O)CCCCC(=O)O [Beispiel 41, δ, δ' -Sulfonyldivaleriansäure] | 48,4 | 0,1 | 99,8% | 88,6%

Each molecule was assayed on Winterweizen (assay: Field test of gametocidal activity (sterilisation of anthers), winter wheat). Conditions: Gordeiforme 12303; V. Periode der Organogenese; 2%ige wäßrige Emulsion; 16 kg/ha.
Type: in vivo
Source text: as §1, §2, §3, §4, §5
Pflanzen des Winterweizens Sorte Mironowskaja 808 werden in der V. Periode der Organogenese durch Zerstäubung der 2%igen wäßrigen Emulsion der δ, δ' -Thiodivaleriansäure mit Hilfe einer Rückenspritze behandelt. Als Emulgiermittel wird 0,1 Masse% Kalziumalkylbenzalsulfonat mit 12 bis 14 Kohlenstoffatomen hinzugefügt. Als Adjuvans führt man in die Emulsion 0,01 Masse% Dimethylsulfoxid ein. Der Verbrauch an Präparat beträgt 20 kg/ha. Als Kontrolle dienen Pflanzen, behandelt mit einem Verdünner ohne Sterilisationsmittel. Die Ergebnisse sind in der Tabelle 1 angegeben. […] Periode der Organogenese erhalten.
Der Prozeß erfolgt analog zu dem im Beispiel 1 bescnriebenen. Als Sterilisationsmittel benutzt man 2%ige wäßrige Emulsion von Natriumsalz der δ, δ'-Thiodivaleriansäure, δ, δ' -Sulfonyldivaleriansäure, Natriumsalz der δ, δ' -Sulfonyldivaleriansäure, Kaliumsalz der δ, δ'--Sulfonyldivaleriansäure, Bis(di-n-butyläther) der δ, δ'--Thiodivaleriansäure, 4-Karboxybutyldezylsulfid bzw.
Pflanzen des Winterweizens Sorte Korall werden in der V. Periode der Organogenese (nach Kupermann) mit 2%iger wäßriger Emulsion von Bis(2-äthylhexyläther) der δ, δ' --Thiodivaleriansäure, 4-Karboxybutyldezylsulfid bzw. Bis(di--n-butyläther) der δ, δ' -Thiodivalerianqäure behandelt. Die Emulsion enthält 0,1 Masse% Kalziumalkylbenzolsulfonat mit 12 bis 14 Kohlenstoffatomen und 0,01 Masse% Dodezylsulfat. Der Verbrauch an Präparat beträgt 12 kg/ha. Als Kontrolle dienen Pflanzen, behandelt mit einem Verdünner ohne Sterilisationsmittel. Die Prüfergebnisse sind in der Tabelle 2 angegeben.
Pflanzen des Winterweizens Gordeiforme 12303 werden in der V. Periode der Organogenese (nach Kupermann) mit 2%iger wäßriger Emulsion von 4-Karboxybutyldezylsulfid, Bis(2-äthylhexyläther) der δ, δ' -Thiodivaleriansäure, δ, δ' -Sulfonyldivaleriansäure behandelt. Die Emulsion enthält als Emulgiermittel 0,1 Masse% Kalziumalkylbenzolsulfonat mit 12 bis 14 Kohlenstoffatomen und 0,01 Masse% Dimethylformamid. Der Verbrauch an Präparat beträgt 16 kg/ha. Als Kontrolle dienen Pflanzen, behandelt mit einem Verdünner ohne Sterilisationsmittel.

Row | Molecule | Anzahl von Körnern der Ähre bei freier Bestäubung | Anzahl von Körnern der Ähre im Isolator | Prozentsatz der Sterilität | Prozentsatz des Ansetzens von Körnern bei freier Bestäubung
6 | CCCCCCCCCCSCCCCC(=O)O [Beispiel 12, 4-Karboxybutyldezylsulfid] | 21,6 | 0,0 | 100,0% | 74,2%
7 | CCCCC(CC)COC(=O)CCCCSCCCCC(=O)OCC(CC)CCCC (stereo not shown) [Beispiel 13, Bis(2-äthylhexyläther) der δ, δ' -Thiodivaleriansäure] | 25,3 | 0,0 | 100,0% | 86,9%
8 | O=C(O)CCCCS(=O)(=O)CCCCC(=O)O [Beispiel 14, δ, δ' -Sulfonyldivaleriansäure] | 23,6 | 0,1 | 99,7% | 81,1%

Same assay, conditions: Sorte Korall; V. Periode der Organogenese; 2%ige wäßrige Emulsion; 12 kg/ha

Row | Molecule | Anzahl von Körnern der Ähre bei freier Bestäubung | Anzahl von Körnern der Ähre im Isolator | Prozentsatz der Sterilität | Prozentsatz des Ansetzens von Körnern bei freier Bestäubung
9 | CCCCC(CC)COC(=O)CCCCSCCCCC(=O)OCC(CC)CCCC (stereo not shown) [Beispiel 9, Bis(2-äthylhexyläther) der δ, δ' --Thiodivaleriansäure] | 30,8 | 0,0 | 100,0% | 95,1%
10 | CCCCCCCCCCSCCCCC(=O)O [Beispiel 10, 4-Karboxybutyldezylsulfid] | 29,1 | 0,1 | 99,5% | 89,8%
11 | Bis(di--n-butyläther) der δ, δ' -Thiodivalerianqäure [Beispiel 11] | 30,2 | 0,1 | 99,5% | 93,2%

Same assay, conditions: Sorte Mironowskaja 808; V. Periode der Organogenese; 2%ige wäßrige Emulsion; 20 kg/ha

Row | Molecule | Anzahl von Körnern der Ähre bei freier Bestäubung | Anzahl von Körnern der Ähre im Isolator | Prozentsatz der Sterilität | Prozentsatz des Ansetzens von Körnern bei freier Bestäubung
12 | O=C([O-])CCCCSCCCCC(=O)[O-].[Na+].[Na+] [Beispiel 2, Natriumsalz der δ, δ'-Thiodivaleriansäure] | 35,3 | 0,3 | 99,3% | 85,7%
13 | O=C(O)CCCCS(=O)(=O)CCCCC(=O)O [Beispiel 3, δ, δ' -Sulfonyldivaleriansäure] | 37,2 | 0,0 | 100,0% | 90,3%
14 | O=C([O-])CCCCS(=O)(=O)CCCCC(=O)[O-].[Na+].[Na+] [Beispiel 4, Natriumsalz der δ, δ' -Sulfonyldivaleriansäure] | 34,1 | 0,1 | 99,8% | 82,8%
15 | O=C([O-])CCCCS(=O)(=O)CCCCC(=O)[O-].[K+].[K+] [Beispiel 5, Kaliumsalz der δ, δ'--Sulfonyldivaleriansäure] | 40,7 | 0,1 | 99,8% | 98,8%
16 | CCCCCCCCCCSCCCCC(=O)O [Beispiel 7, 4-Karboxybutyldezylsulfid] | 35,6 | 0,0 | 100,0% | 86,4%
17 | CCCCC(CC)COC(=O)CCCCSCCCCC(=O)OCC(CC)CCCC (stereo not shown) [Beispiel 8] | 36,1 | 0,0 | 100,0% | 87,6%
18 | O=C(O)CCCCSCCCCC(=O)O [Beispiel I, δ, δ' -Thiodivaleriansäure] | 37,0 | 0,5 | 98,8% | 89,8%
19 | Bis(di-n-butyläther) der δ, δ'--Thiodivaleriansäure [Beispiel 6] | 34,8 | 0,0 | 100,0% | 84,5%
